Consider 27 compounds from patent publication US20260258038A1 (priority 2023, published 2026).

Test [1] has as its system Phytophthora infestans. As to the kind of experiment: whole plant or invertebrate. The class given is in vivo. Conditions: in Solanum lycopersicum, foliar, read-out: control of Phytophthora infestans (percent disease control compared to untreated).
Test [2] concerns Pythium ultimum. Put plainly: Pythium ultimum / liquid culture (seedling damping off). The class given is cell-based. Conditions: Globisporangium ultimum, liquid culture in PDB, 24° C., 2-3 days after application, read-out: control of Pythium ultimum (inhibition of growth, photometric). As to the method: Pythium ultimum/Liquid Culture (Seedling Damping Off)
Mycelia fragments and oospores of a newly grown liquid culture of the fungus are directly mixed into nutrient broth (PDB potato dextrose broth). After placing a (DMSO) solution of test compound into a microtiter plate (96-well format), the nutrient broth containing the fungal mycelia/spore mixture is added. The test plates are incubated at 24° C. and the inhibition of growth is determined photometrically 2-3 days after application.

Test [3] relates to Plasmopara viticola. As to the kind of experiment: whole plant or invertebrate. The class given is in vivo. Particulars: foliar, read-out: control of Plasmopara viticola (percent disease control compared to untreated).

In the case of `COC(=O)Nc1ccc(-c2cnc3ccc(N(CCC#N)C(=O)c4ccc(F)c(OC)c4)cn23)cn1` [Compound 62, methyl N-[5-[6-[2-cyanoethyl-(4-fluoro-3-methoxy-benzoyl)amino]imidazo[1,2-a]pyridin-3-yl]-2-pyridyl]carbamate], the pest or weed control at 200 ppm in test [1] is ≥ 80%. For the same compound, the inhibition at 20 ppm in test [2] is ≥ 80%.
As for `COC(=O)Nc1ccc(-c2cnc3c(C)cc(N(C)C(=O)c4cnc(F)c(C)c4)cn23)cn1` [Compound 43, methyl N-[5-[6-[(6-fluoro-5-methyl-pyridine-3-carbonyl)-methyl-amino]-8-methyl-imidazo[1,2-a]pyridin-3-yl]-2-pyridyl]carbamate], in test [1], the pest or weed control at 200 ppm is ≥ 80%. For the same compound, the inhibition at 20 ppm in test [2] is ≥ 80%.
Turning to `COC(=O)Nc1ccc(-c2cnc3c(C)cc(N(C)C(=O)c4ccc(C#N)c(C)c4)cn23)cn1` [Compound 2, methyl N-[5-[6-[(4-cyano-3-methyl-benzoyl)-methyl-amino]-8-methyl-imidazo[1,2-a]pyridin-3-yl]-2-pyridyl]carbamate], the inhibition at 20 ppm in test [2] was ≥ 80%.
Take `COC(=O)Nc1ccc(-c2cnc3c(C)cc(N(C)C(=O)c4ccnc(OC)c4)cn23)cn1` [Compound 3, methyl N-[5-[6-[(2-methoxypyridine-4-carbonyl)-methyl-amino]-8-methyl-imidazo[1,2-a]pyridin-3-yl]-2-pyridyl]carbamate]: the pest or weed control at 200 ppm in test [1] was ≥ 80%. Also, the inhibition at 20 ppm in test [2] was ≥ 80%.
Take `COC(=O)Nc1ccc(-c2cnc3c(C)cc(N(C)C(=O)c4ccc(Cl)c(OC)c4)cn23)cn1` [Compound 1, methyl N-[5-[6-[(4-chloro-3-methoxy-benzoyl)-methyl-amino]-8-methyl-imidazo[1,2-a]pyridin-3-yl]-2-pyridyl]carbamate]: the pest or weed control at 200 ppm in test [1] and in test [3] was ≥ 80% each time. For the same compound, the inhibition at 20 ppm in test [2] was ≥ 80%.
On to `COC(=O)Nc1ccc(-c2cnc3c(C)cc(N(C)C(=O)c4ccc(C#N)nc4)cn23)cn1` [Compound 51, methyl N-[5-[6-[(6-cyanopyridine-3-carbonyl)-methyl-amino]-8-methyl-imidazo[1,2-a]pyridin-3-yl]-2-pyridyl]carbamate], for which the pest or weed control at 200 ppm in test [1] is ≥ 80%.
On to `COC(=O)Nc1ccc(-c2cnc3c(Br)cc(N(C)C(=O)c4ccc(F)c(OC)c4)cn23)cn1` [Compound 60, methyl N-[5-[8-bromo-6-[(4-fluoro-3-methoxy-benzoyl)-methyl-amino]imidazo[1,2-a]pyridin-3-yl]-2-pyridyl]carbamate], for which the pest or weed control at 200 ppm in test [1] and in test [3] was ≥ 80% each time. For the same compound, the inhibition at 20 ppm in test [2] was ≥ 80%.
`COC(=O)Nc1ccc(-c2cnc3c(C)cc(N(C)C(=O)c4ccc(F)cc4F)cn23)cn1` [Compound 54, methyl N-[5-[6-[(2,4-difluorobenzoyl)-methyl-amino]-8-methyl-imidazo[1,2-a]pyridin-3-yl]-2-pyridyl]carbamate]: the pest or weed control at 200 ppm in test [1] and in test [3] was ≥ 80% in each case. Besides, the inhibition at 20 ppm in test [2] is ≥ 80%.
Regarding `CCOc1cc(C(=O)N(C)c2ccc3ncc(-c4ccc(NC(=O)OC)nc4)n3c2)ccc1F` [Compound 23, methyl N-[5-[6-[(3-ethoxy-4-fluoro-benzoyl)-methyl-amino]imidazo[1,2-a]pyridin-3-yl]-2-pyridyl]carbamate], the pest or weed control at 200 ppm in test [1] is ≥ 80%. Also, the inhibition at 20 ppm in test [2] was ≥ 80%.
With `COC(=O)Nc1ccc(-c2cnc3ccc(N(C)C(=O)c4ccc(F)c(C)c4)cn23)cn1` [Compound 21, methyl N-[5-[6-[(4-fluoro-3-methyl-benzoyl)-methyl-amino]imidazo[1,2-a]pyridin-3-yl]-2-pyridyl]carbamate], in test [1], the pest or weed control at 200 ppm was ≥ 80%. Further, in test [2], the inhibition at 20 ppm is ≥ 80%.
`COC(=O)Nc1ccc(-c2cnc3c(C)cc(N(C)C(=O)c4cccnc4SC)cn23)cn1` [Compound 46, methyl N-[5-[8-methyl-6-[methyl-(2-methylsulfanylpyridine-3-carbonyl)amino]imidazo[1,2-a]pyridin-3-yl]-2-pyridyl]carbamate]: the pest or weed control at 200 ppm in test [1] is ≥ 80%.
Turning to `COC(=O)Nc1ccc(-c2cnc3ccc(N(C)C(=O)c4ccc(Cl)cc4)cn23)cc1` [Compound 27, methyl N-[4-[6-[(4-chlorobenzoyl)-methyl-amino]imidazo[1,2-a]pyridin-3-yl]phenyl]carbamate], the pest or weed control at 200 ppm in test [3] was ≥ 80%. Moreover, the inhibition at 20 ppm in test [2] is ≥ 80%.
For `COCN(C(=O)c1ccc(F)cc1)c1ccc2ncc(-c3ccc(NC(=O)OC)nc3)n2c1` [Compound 24, methyl N-[5-[6-[(4-fluorobenzoyl)-(methoxymethyl)amino]imidazo[1,2-a]pyridin-3-yl]-2-pyridyl]carbamate], the pest or weed control at 200 ppm in test [1] was ≥ 80%. Further, in test [2], the inhibition at 20 ppm is ≥ 80%.
In the case of `CCOc1cc(C(=O)N(C)c2cc(C)c3ncc(-c4ccc(NC(=O)OC)nc4)n3c2)ccc1C#N` [Compound 10, methyl N-[5-[6-[(4-cyano-3-ethoxy-benzoyl)-methyl-amino]-8-methyl-imidazo[1,2-a]pyridin-3-yl]-2-pyridyl]carbamate], the pest or weed control at 200 ppm in test [1] and in test [3] was ≥ 80% throughout. Further, the inhibition at 20 ppm in test [2] was ≥ 80%.
As to `COC(=O)Nc1ccc(-c2cnc3c(C)cc(N(C)C(=O)c4ccc(C#N)c(F)c4)cn23)cn1` [Compound 4, methyl N-[5-[6-[(4-cyano-3-fluoro-benzoyl)-methyl-amino]-8-methyl-imidazo[1,2-a]pyridin-3-yl]-2-pyridyl]carbamate], in test [2], the inhibition at 20 ppm is ≥ 80%.
For the compound `COCCN(C(=O)c1ccc(F)c(OC)c1)c1ccc2ncc(-c3ccc(NC(=O)OC)nc3)n2c1` [Compound 14, methyl N-[5-[6-[(4-fluoro-3-methoxy-benzoyl)-(2-methoxyethyl)amino]imidazo[1,2-a]pyridin-3-yl]-2-pyridyl]carbamate], the inhibition at 20 ppm in test [2] is ≥ 80%.
As to `COC(=O)Nc1ccc(-c2cnc3c(C4CC4)cc(N(C)C(=O)c4ccc(F)c(OC)c4)cn23)cn1` [Compound 56, methyl N-[5-[8-cyclopropyl-6-[(4-fluoro-3-methoxy-benzoyl)-methyl-amino]imidazo[1,2-a]pyridin-3-yl]-2-pyridyl]carbamate], the pest or weed control at 200 ppm in test [1] and in test [3] was ≥ 80% throughout. The inhibition at 20 ppm in test [2] is ≥ 80%.
Take `COC(=O)Nc1ccc(-c2cnc3ccc(N(C)C(=O)c4ccc(F)c(F)c4)cn23)cn1` [Compound 22, methyl N-[5-[6-[(3,4-difluorobenzoyl)-methyl-amino]imidazo[1,2-a]pyridin-3-yl]-2-pyridyl]carbamate]: the pest or weed control at 200 ppm in test [1] was ≥ 80%. Also, the inhibition at 20 ppm in test [2] is ≥ 80%.
As for `COC(=O)Nc1ccc(-c2cnc3c(C)cc(N(C)C(=O)c4ccc(C#N)c(OC)c4)cn23)cn1` [Compound 5, methyl N-[5-[6-[(4-cyano-3-methoxy-benzoyl)-methyl-amino]-8-methyl-imidazo[1,2-a]pyridin-3-yl]-2-pyridyl]carbamate], the pest or weed control at 200 ppm in test [1] and in test [3] was ≥ 80% each time. In addition, the inhibition at 20 ppm in test [2] is ≥ 80%.
On to `COC(=O)Nc1ccc(-c2cnc3c(NC(C)=O)cc(N(C)C(=O)c4ccc(F)c(OC)c4)cn23)cn1` [Compound 59, methyl N-[5-[8-acetamido-6-[(4-fluoro-3-methoxy-benzoyl)-methyl-amino]imidazo[1,2-a]pyridin-3-yl]-2-pyridyl]carbamate], for which, in test [1], the pest or weed control at 200 ppm is ≥ 80%. The inhibition at 20 ppm in test [2] is ≥ 80%.
Turning to `COC(=O)Nc1ccc(-c2cnc3ccc(N(C)C(=O)c4ccc(C#N)c(F)c4)cn23)cn1` [Compound 15, methyl N-[5-[6-[(4-cyano-3-fluoro-benzoyl)-methyl-amino]imidazo[1,2-a]pyridin-3-yl]-2-pyridyl]carbamate], the inhibition at 20 ppm in test [2] is ≥ 80%.
With `COC(=O)Nc1ccc(-c2cnc3ccc(N(CC#N)C(=O)c4ccc(F)cc4)cn23)cn1` [Compound 6, methyl N-[5-[6-[cyanomethyl-(4-fluorobenzoyl)amino]imidazo[1,2-a]pyridin-3-yl]-2-pyridyl]carbamate], in test [2], the inhibition at 20 ppm was ≥ 80%.
`COC(=O)Nc1ccc(-c2cnc3ccc(N(C)C(=O)c4ccc(C#N)c(C)c4)cn23)cn1` [Compound 17, methyl N-[5-[6-[(4-cyano-3-methyl-benzoyl)-methyl-amino]imidazo[1,2-a]pyridin-3-yl]-2-pyridyl]carbamate]: the inhibition at 20 ppm in test [2] is ≥ 80%.
Same read-out and setting: in the case of `COC(=O)Nc1ccc(-c2cnc3ccc(N(CC#N)C(=O)c4ccc(F)c(OC)c4)cn23)cn1` [Compound 7, methyl N-[5-[6-[cyanomethyl-(4-fluoro-3-methoxy-benzoyl)amino]imidazo[1,2-a]pyridin-3-yl]-2-pyridyl]carbamate] it was ≥ 80%.
As to `CCOc1cc(C(=O)N(C)c2cc(C)c3ncc(-c4ccc(NC(=O)OC)nc4)n3c2)ccc1F` [Compound 19, methyl N-[5-[6-[(3-ethoxy-4-fluoro-benzoyl)-methyl-amino]-8-methyl-imidazo[1,2-a]pyridin-3-yl]-2-pyridyl]carbamate], in test [1], the pest or weed control at 200 ppm is ≥ 80%. Further, the inhibition at 20 ppm in test [2] is ≥ 80%.
As to `COC(=O)Nc1ccc(-c2cnc3c(C)cc(N(C)C(=O)c4ccccc4C(=O)OC)cn23)cn1` [Compound 40], the pest or weed control at 200 ppm in test [1] was ≥ 80%.
Regarding `COC(=O)Nc1ccc(-c2cnc3c(C)cc(N(C)C(=O)c4cccc(OC)n4)cn23)cn1` [Compound 37, methyl N-[5-[6-[(6-methoxypyridine-2-carbonyl)-methyl-amino]-8-methyl-imidazo[1,2-a]pyridin-3-yl]-2-pyridyl]carbamate], the pest or weed control at 200 ppm in test [1] is ≥ 80%.
